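Each compound was tested at five concentrations against cells in 96-well plates for 48 hours. Here, GI50 denotes the concentration required for 50% inhibition of growth. TGI: total growth inhibition.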
Legend:
Test in all cases: NCI-60 cell line screen, 48 h
[1] = test system: HT29 colon
[2] = test system: MCF7 breast
[3] = test system: LOX IMVI melanoma
[4] = test system: TK-10 renal
[5] = test system: UACC-257 melanoma
[6] = test system: OVCAR-5 ovarian
[7] = test system: MDA-MB-231 breast
[8] = test system: SF-268 CNS
[9] = test system: OVCAR-8 ovarian
[10] = test system: NCI-H522 lung
[11] = test system: OVCAR-3 ovarian
[12] = test system: CAKI-1 renal
[13] = test system: UACC-62 melanoma
[14] = test system: PC-3 prostate
[15] = test system: A498 renal
[16] = test system: MDA-MB-468 breast
[17] = test system: SF-539 CNS
[18] = test system: DU-145 prostate
[19] = test system: SN12C renal
[20] = test system: NCI-H23 lung
[21] = test system: CCRF-CEM leukemia
[22] = test system: HOP-92 NSCLC
[23] = test system: U251 CNS
[24] = test system: HCC-2998 colon
[25] = test system: RPMI-8226 leukemia
[26] = test system: K-562 leukemia
[27] = test system: MDA-MB-435
[28] = test system: SK-MEL-5 melanoma
[29] = test system: HL-60(TB) leukemia
[30] = test system: BT-549 breast
[31] = test system: NCI-H460 lung
[32] = test system: ACHN renal
[33] = test system: NCI-H226 lung
[34] = test system: RXF 393 renal
[35] = test system: KM12 colon
[36] = test system: M14 melanoma
[37] = test system: MALME-3M melanoma
[38] = test system: HCT-116 colon
[39] = test system: SK-MEL-2 melanoma
[40] = test system: SF-295 CNS
[41] = test system: HCT-15 colon
[42] = test system: SR leukemia
[43] = test system: SW-620 colon
[44] = test system: HS 578T breast
[45] = test system: IGROV1 ovarian
[46] = test system: HOP-62 NSCLC
[47] = test system: NCI/ADR-RES ovarian
[48] = test system: SNB-19 CNS
[49] = test system: SK-MEL-28 melanoma
[50] = test system: 786-0 renal
[51] = test system: SK-OV-3 ovarian
[52] = test system: MOLT-4 leukemia
[53] = test system: T-47D breast
[54] = test system: A549 NSCLC
[55] = test system: UO-31 renal
[56] = test system: OVCAR-4 ovarian
[57] = test system: EKVX NSCLC
[58] = test system: SNB-75 CNS
[59] = test system: COLO 205 colon

Which results are given for `Clc1ccc(-c2nc3ccc(-c4nnc(SCc5ccccc5)o4)cc3[nH]2)cc1`?
GI50 [1]: 16.9 µM; TGI [1]: > 100 µM; GI50 [2]: 3.08 µM; TGI [2]: > 100 µM; GI50 [3]: 4.95 µM; TGI [3]: 40.7 µM; GI50 [4]: > 100 µM; TGI [4]: > 100 µM; GI50 [5]: 22.8 µM; TGI [5]: > 100 µM; GI50 [6]: 5.87 µM; TGI [6]: 97.1 µM; GI50 [7]: 5.36 µM; TGI [7]: 36.1 µM; GI50 [8]: 7.59 µM; TGI [8]: > 100 µM; GI50 [9]: 6.49 µM; TGI [9]: 27.5 µM; GI50 [10]: 2.83 µM; TGI [10]: 10.3 µM; GI50 [11]: 2.7 µM; TGI [11]: 7.61 µM; GI50 [12]: 16.1 µM; TGI [12]: 54.7 µM; GI50 [13]: 13.8 µM; TGI [13]: > 100 µM; GI50 [14]: 6.21 µM; TGI [14]: > 100 µM; GI50 [15]: 18.2 µM; TGI [15]: 42.5 µM; GI50 [16]: 3.32 µM; TGI [16]: 15.3 µM; GI50 [17]: 2.98 µM; TGI [17]: 10.2 µM; GI50 [18]: 57 µM; TGI [18]: > 100 µM; GI50 [19]: 1.87 µM; TGI [19]: 4.05 µM; GI50 [20]: 6.21 µM; TGI [20]: 74.2 µM; GI50 [21]: 4.91 µM; TGI [21]: > 100 µM; GI50 [22]: 11.5 µM; TGI [22]: 48.3 µM; GI50 [23]: 2.69 µM; TGI [23]: 6.8 µM; GI50 [24]: 19.9 µM; TGI [24]: > 100 µM; GI50 [25]: 8.07 µM; TGI [25]: > 100 µM; GI50 [26]: 4.78 µM; TGI [26]: > 100 µM; GI50 [27]: 8.65 µM; TGI [27]: > 100 µM; GI50 [28]: 4.87 µM; TGI [28]: 33.4 µM; GI50 [29]: 26.2 µM; TGI [29]: > 100 µM; GI50 [30]: 24 µM; TGI [30]: > 100 µM; GI50 [31]: 5.37 µM; TGI [31]: > 100 µM; GI50 [32]: 14.5 µM; TGI [32]: > 100 µM; GI50 [33]: 7.54 µM; TGI [33]: 36 µM; GI50 [34]: 3.58 µM; TGI [34]: 48.6 µM; GI50 [35]: 17.6 µM; TGI [35]: > 100 µM; GI50 [36]: 25.5 µM; TGI [36]: > 100 µM; GI50 [37]: 16.1 µM; TGI [37]: 83.2 µM; GI50 [38]: 3.25 µM; TGI [38]: > 100 µM; GI50 [39]: 16.2 µM; TGI [39]: > 100 µM; GI50 [40]: 5.41 µM; TGI [40]: 52.3 µM; GI50 [41]: 3.75 µM; TGI [41]: 27.4 µM; GI50 [42]: 5.86 µM; TGI [42]: > 100 µM; GI50 [43]: 3.41 µM; TGI [43]: 43.2 µM; GI50 [44]: 12.2 µM; TGI [44]: > 100 µM; GI50 [45]: 7.37 µM; TGI [45]: > 100 µM; GI50 [46]: 16.4 µM; TGI [46]: 86.6 µM; GI50 [47]: 4.09 µM; TGI [47]: 21.5 µM; GI50 [48]: 5.85 µM; TGI [48]: > 100 µM; GI50 [49]: 36.9 µM; TGI [49]: > 100 µM; GI50 [50]: 4.03 µM; TGI [50]: > 100 µM; GI50 [51]: 23 µM; TGI [51]: > 100 µM; GI50 [52]: 4.71 µM; TGI [52]: > 100 µM; GI50 [53]: 3.05 µM; TGI [53]: 41.3 µM; GI50 [54]: 3.78 µM; TGI [54]: > 100 µM; GI50 [55]: 9.18 µM; TGI [55]: > 100 µM; GI50 [56]: 3.87 µM; TGI [56]: 21.9 µM; GI50 [57]: 4.18 µM; TGI [57]: 39 µM; GI50 [58]: 2.13 µM; TGI [58]: 22.9 µM; GI50 [59]: 15.5 µM; TGI [59]: > 100 µM
